Key:
[1] = Form stability at high temperature and humidity (uncovered vial in stability chamber, then PXRD / 1H NMR analysis); assay type: physicochemical; design: key to Form stability result (PXRD): NC: no change in PXRD; settings: 40° C./75% RH
Description: PXRD diffractograms were recorded on a Bruker D8 Discover powder X-ray diffractometer (Bruker AXS LLC, Karlsruhe, Germany). The sample holder was oscillated along X and Y axes during the measurement. The generator was a Incoatec Microfocus Source (IμS) Cu tube (λ=1.54060 Å) with a voltage of 50 kV and current of 1.00 mA, using a divergence slit of 0.3 mm and collimator of 0.3 mm. For each sample, one frame was collected using a still scan with a PILATUS3 R 100K-A detector at the distance of 154.72 mm from the sample. Raw data were evaluated using the program DIFFRAC.EVA (Bruker AXS LLC, Karlsruhe, Germany).
Samples were kept in an uncovered vial in a stability chamber maintained at 40° C./75% relative humidity (RH) for the specified period prior to PXRD analysis to evaluate form stability.

[2] = cited from earlier work
[3] = cited from earlier work; remark: listed apart in the source
[4] = cited from earlier work; remark: listed apart in the source

Row | Compound | Form stability result (PXRD) ([1]; 1 month) | Form stability result (PXRD) ([1]; 3 months) | also measured
1 | COC(=O)c1ccc2c(c1)NC(=O)C2=C(Nc1ccc(N(C)C(=O)CN2CCN(C)CC2)cc1)c1ccccc1.O=C(O)CCCC(=O)O [Nintedanib glutarate Form APO-I, nintedanib glutarate] | NC | – | –
2 | CC(=O)CCC(=O)O.COC(=O)c1ccc2c(c1)NC(=O)C2=C(Nc1ccc(N(C)C(=O)CN2CCN(C)CC2)cc1)c1ccccc1 [Nintedanib levulinate Form APO-I, nintedanib levulinate] | – | NC | –
3 | CC1=CC(=O)NS(=O)(=O)O1.CC1=CC(=O)NS(=O)(=O)O1.COC(=O)c1ccc2c(c1)NC(=O)C2=C(Nc1ccc(N(C)C(=O)CN2CCN(C)CC2)cc1)c1ccccc1 [Nintedanib diacesulfamate Form APO-I, nintedanib diacesulfamate] | – | NC | –
4 | COC(=O)c1ccc2c(c1)NC(=O)/C2=C(\Nc1ccc(N(C)C(=O)CN2CCN(C)CC2)cc1)c1ccccc1 [nintedanib esylate, (3Z)-2,3-dihydro-3-[[[4-[methyl[(4-methyl-1-piperazinyl)acetyl]amino]phenyl]amino]phenylmethylene]-2-oxo-1H-indole-6-carboxylic acid methyl ester] | – | – | Solubility in neutral aqueous conditions [2]: poor; Bioavailability in humans [3]: low; Chemical stability in the presence of water [4]: undergo hydrolysis
5 | COC(=O)c1ccc2c(c1)NC(=O)C2=C(Nc1ccc(N(C)C(=O)CN2CCN(C)CC2)cc1)c1ccccc1.O=C(O)CNC(=O)c1ccccc1 [Nintedanib hippurate Form APO-I, nintedanib hippurate] | – | NC | 1H NMR spectroscopy following storage ([1]; after storage (3 months per Table 8)): no change
6 | COC(=O)c1ccc2c(c1)NC(=O)C2=C(Nc1ccc(N(C)C(=O)CN2CCN(C)CC2)cc1)c1ccccc1.O=C1NS(=O)(=O)c2ccccc21 [Nintedanib saccharinate Form APO-I, nintedanib saccharinate] | NC | – | –
7 | CC1=CC(=O)NS(=O)(=O)O1.COC(=O)c1ccc2c(c1)NC(=O)C2=C(Nc1ccc(N(C)C(=O)CN2CCN(C)CC2)cc1)c1ccccc1 [Nintedanib acesulfamate Form APO-I, nintedanib acesulfamate] | NC | – | –

Source: US20230093124A1, “Salts of Nintedanib and Crystalline Forms Thereof” (Apotex Inc., priority 2021, published 2023)
